Patent publication US20240254119A1 (THIRD HARMONIC BIO, INC., priority 2022, published 2024)

Columns and labels:
CSF-1R = biological target: T1, CSF-1R (Homo sapiens, UniProt P07333); assay: Caliper biochemical assay, CSF-1R; details: Table 6
T1 construct: purchased Invitrogen PV3249 (lot 662393N)
In short: (§1)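 Mobility-shift readout: after EDTA quench, fluorescent peptide and product are resolved electrophoretically on a LabChip and measured by fluorescence. Reactions contain enzyme, carboxyfluorescein peptide, ATP, Mn^2+ and compound, run 3 h at 25° C; 100% inhibition control lacks enzyme.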

PDGFRα = biological target: T2, PDGFRα (Homo sapiens, UniProt P16234); assay: Caliper biochemical assay, PDGFRα; details: Table 6
T2 construct: purchased Millipore 14-467 (lot 26321_ACTI)
T2 sequence (P16234 24-1089): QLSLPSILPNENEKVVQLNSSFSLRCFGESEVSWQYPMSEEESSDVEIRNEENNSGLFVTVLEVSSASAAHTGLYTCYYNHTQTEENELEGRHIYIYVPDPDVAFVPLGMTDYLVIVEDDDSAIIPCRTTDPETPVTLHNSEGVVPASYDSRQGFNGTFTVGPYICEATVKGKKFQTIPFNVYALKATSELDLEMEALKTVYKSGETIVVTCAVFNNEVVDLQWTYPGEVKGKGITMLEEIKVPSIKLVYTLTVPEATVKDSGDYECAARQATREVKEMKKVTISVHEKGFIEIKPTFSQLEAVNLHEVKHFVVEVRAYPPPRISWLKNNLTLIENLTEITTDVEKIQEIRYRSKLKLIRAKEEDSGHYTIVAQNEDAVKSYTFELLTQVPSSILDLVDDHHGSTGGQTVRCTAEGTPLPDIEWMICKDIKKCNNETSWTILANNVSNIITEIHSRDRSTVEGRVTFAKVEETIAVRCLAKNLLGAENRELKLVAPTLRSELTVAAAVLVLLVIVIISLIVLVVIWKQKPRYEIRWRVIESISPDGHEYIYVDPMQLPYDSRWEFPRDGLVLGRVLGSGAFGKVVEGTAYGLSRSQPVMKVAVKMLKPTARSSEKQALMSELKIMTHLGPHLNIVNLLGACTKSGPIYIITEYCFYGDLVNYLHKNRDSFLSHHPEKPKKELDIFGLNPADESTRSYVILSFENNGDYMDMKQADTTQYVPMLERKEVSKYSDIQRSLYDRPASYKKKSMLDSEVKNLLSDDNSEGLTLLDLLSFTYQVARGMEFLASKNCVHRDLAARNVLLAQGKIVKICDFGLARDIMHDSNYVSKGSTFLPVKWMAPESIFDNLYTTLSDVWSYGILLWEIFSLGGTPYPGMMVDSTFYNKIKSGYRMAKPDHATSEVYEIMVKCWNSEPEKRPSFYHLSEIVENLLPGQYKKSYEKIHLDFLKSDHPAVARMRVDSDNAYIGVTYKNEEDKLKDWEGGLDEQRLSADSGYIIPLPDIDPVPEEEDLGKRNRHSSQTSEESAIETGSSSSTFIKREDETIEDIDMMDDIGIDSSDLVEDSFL
In short: as §1

wtKIT = biological target: T3, wtKIT (Homo sapiens, UniProt P10721); assay: Caliper biochemical assay, wtKIT; details: Table 6, read-out: KIT Biochemical IC50 avg
T3 construct: 1888289AM in the reaction mixtures
T3 sequence (P10721 26-976): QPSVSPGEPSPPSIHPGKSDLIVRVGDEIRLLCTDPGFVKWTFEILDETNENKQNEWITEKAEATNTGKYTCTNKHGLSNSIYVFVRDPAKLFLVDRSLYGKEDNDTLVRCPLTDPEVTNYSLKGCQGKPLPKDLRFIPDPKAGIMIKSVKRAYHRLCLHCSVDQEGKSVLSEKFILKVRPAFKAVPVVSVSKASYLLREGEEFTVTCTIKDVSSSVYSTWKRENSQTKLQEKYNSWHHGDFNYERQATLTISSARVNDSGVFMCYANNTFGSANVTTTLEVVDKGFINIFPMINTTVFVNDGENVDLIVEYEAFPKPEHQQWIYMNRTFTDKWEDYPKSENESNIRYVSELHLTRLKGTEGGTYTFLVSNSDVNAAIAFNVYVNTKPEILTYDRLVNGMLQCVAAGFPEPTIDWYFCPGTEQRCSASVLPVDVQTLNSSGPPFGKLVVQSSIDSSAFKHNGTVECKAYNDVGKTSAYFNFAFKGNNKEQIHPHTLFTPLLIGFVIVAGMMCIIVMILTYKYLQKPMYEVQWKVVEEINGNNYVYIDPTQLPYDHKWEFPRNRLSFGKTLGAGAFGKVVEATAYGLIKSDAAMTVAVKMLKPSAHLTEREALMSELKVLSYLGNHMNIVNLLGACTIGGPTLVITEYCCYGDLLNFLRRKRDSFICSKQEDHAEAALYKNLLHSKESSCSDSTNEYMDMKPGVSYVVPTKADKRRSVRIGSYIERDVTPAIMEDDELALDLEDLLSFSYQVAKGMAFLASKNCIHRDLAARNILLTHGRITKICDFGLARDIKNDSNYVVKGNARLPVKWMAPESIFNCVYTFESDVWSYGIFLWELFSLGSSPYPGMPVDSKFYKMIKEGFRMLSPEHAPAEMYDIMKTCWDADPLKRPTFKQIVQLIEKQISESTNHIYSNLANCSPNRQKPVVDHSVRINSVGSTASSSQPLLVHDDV
In short: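 Mobility-shift read-out: after EDTA stop, fluorescent peptide substrate and product resolved electrophoretically on LabChip 3000. Reaction ran 3 h at 25° C with 400 μM ATP, Mn^2+ cofactor, 5.0 nM wtKIT, 1 μM FAM-peptide, pH 7.5 HEPES buffer; no-enzyme wells defined full inhibition.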

[1] = biological target: T4, BCRP (BCRP-MDCKII monolayer) (Homo sapiens, UniProt Q9UNQ0); assay: MDCKII-BCRP bidirectional transport assay; assay type: in vitro ADME; details: for MDCK-BCRP: Papp A-B: apical to basolateral
T4 construct: host or cells: MDCKII (canine kidney) cells
T4 sequence (Q9UNQ0 1-655): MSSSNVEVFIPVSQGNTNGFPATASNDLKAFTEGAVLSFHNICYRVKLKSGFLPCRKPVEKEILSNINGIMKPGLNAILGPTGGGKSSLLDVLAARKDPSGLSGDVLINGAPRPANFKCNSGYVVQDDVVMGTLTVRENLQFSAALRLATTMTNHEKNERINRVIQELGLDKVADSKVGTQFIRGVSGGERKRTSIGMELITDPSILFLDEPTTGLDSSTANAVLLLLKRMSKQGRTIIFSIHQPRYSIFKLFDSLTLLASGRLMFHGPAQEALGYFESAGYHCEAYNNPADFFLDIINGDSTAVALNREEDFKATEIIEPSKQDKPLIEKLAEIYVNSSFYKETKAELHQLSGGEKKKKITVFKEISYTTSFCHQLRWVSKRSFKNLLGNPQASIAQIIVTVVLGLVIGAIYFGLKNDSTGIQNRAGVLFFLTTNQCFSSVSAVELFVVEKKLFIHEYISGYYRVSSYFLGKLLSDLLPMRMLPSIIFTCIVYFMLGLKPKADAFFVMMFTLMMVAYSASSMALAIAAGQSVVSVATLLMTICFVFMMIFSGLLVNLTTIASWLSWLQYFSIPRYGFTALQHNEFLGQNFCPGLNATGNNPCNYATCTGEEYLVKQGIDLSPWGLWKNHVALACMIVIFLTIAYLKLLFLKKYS
In short: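 Efflux ratios were derived from Papp values, alongside recovery, with compounds quantified by LC-MS/MS. Both directions were tested in duplicate across BCRP-MDCKII monolayers used on days 12–15. Incubation ran 120 min at 37° C, 5% CO2, after a 15 min preincubation in assay buffer.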

Kinetic solubility assay = assay type: physicochemical; details: kinetic solubility, 50 mM PB (pH 7.4), shaken 24 hours at RT
In short: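 Concentration in the filtrate was determined by UPLC-UV or HPLC-UV with a standard curve. Before that, compound (10 mM DMSO stock) in 50 mM PB at pH 7.4 was agitated 24 h at room temperature, then PTFE-filtered with centrifugation.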

T1 sequence (P07333 20-972): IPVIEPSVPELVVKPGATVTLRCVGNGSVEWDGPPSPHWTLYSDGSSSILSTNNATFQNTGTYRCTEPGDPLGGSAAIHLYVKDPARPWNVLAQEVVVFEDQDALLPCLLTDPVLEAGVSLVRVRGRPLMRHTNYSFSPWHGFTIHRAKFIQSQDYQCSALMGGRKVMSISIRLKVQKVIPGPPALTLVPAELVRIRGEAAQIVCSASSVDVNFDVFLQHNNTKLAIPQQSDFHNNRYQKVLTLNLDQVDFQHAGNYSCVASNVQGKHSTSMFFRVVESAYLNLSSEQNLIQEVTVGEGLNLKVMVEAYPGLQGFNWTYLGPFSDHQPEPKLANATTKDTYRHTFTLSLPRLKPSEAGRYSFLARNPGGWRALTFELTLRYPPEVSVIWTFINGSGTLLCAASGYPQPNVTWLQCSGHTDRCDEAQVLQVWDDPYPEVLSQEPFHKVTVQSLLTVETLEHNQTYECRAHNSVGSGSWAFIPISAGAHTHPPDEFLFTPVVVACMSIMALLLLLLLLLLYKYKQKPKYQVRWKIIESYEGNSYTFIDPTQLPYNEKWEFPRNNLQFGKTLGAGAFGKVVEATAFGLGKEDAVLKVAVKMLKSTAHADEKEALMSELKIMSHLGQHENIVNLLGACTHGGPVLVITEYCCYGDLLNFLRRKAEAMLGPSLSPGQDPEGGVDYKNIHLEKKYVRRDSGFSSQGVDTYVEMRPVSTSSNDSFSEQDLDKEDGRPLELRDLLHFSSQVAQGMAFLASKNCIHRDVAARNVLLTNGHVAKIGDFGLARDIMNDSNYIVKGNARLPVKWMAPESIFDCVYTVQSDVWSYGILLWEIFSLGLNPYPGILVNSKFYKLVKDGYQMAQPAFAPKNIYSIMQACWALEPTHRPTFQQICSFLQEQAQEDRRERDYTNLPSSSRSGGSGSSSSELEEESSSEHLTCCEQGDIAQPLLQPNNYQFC

Row | Structure (SMILES) | IC50 (CSF-1R) | IC50 (PDGFRα) | IC50 (wtKIT) | MDCK-BCRP: Efflux Ratio [1] | MDCK-BCRP: Papp A-B [1] | Solubility (μM) (Kinetic solubility assay)
1 | Cc1ccc(-c2noc([C@H]3C[C@@H]3F)n2)cc1NC(=O)c1cnc2cc(OC(C)C)ccn12 [Compound I-88] | ≤ 0.05 µM | 0.05 to 0.5 µM | ≤ 0.05 µM | 0.89 | 29 10^−6 cm/s | **** (a solubility less than or equal to 2 μM)
2 | Cc1ccc(-c2noc(C3CCC3F)n2)cc1NC(=O)c1cnc2ccccn12 (racemic) [Compound I-377] | ≤ 0.05 µM | 0.5 to 5 µM | ≤ 0.05 µM | 0.98 | 7.81 10^−6 cm/s | *** (a solubility greater than 2 μM and less than or equal to 10 μM)
3 | Cc1nc(-c2ccc(C)c(NC(=O)c3cnc4ccccn34)c2)no1 [Compound I-360] | 0.5 to 5 µM | 0.5 to 5 µM | ≤ 0.05 µM | 1.52 | 9.54 10^−6 cm/s | ** (a solubility greater than 10 μM and less than or equal to 50 μM)
4 | Cc1ccc(-c2noc(C3CC4(CCC4)C3)n2)cc1NC(=O)c1cnc2ccccn12 [Compound I-367] | ≤ 0.05 µM | ≤ 0.05 µM | ≤ 0.05 µM | 1.18 | 0.83 10^−6 cm/s | **** (a solubility less than or equal to 2 μM)
5 | Cc1ccc(-c2noc([C@H]3CC(F)(F)CN3)n2)cc1NC(=O)c1cnc2ccccn12 [Compound I-359] | 0.05 to 0.5 µM | 0.5 to 5 µM | ≤ 0.05 µM | 7.14 | 4.68 10^−6 cm/s | * (a solubility greater than 50 μM)
6 | CNC(=O)N1CC(c2nc(-c3ccc(C)c(NC(=O)c4cnc5ccccn45)c3)no2)C1 [Compound I-282] | 5 to 30 µM | 5 to 30 µM | ≤ 0.05 µM | 28.1 | 0.55 10^−6 cm/s | ** (a solubility greater than 10 μM and less than or equal to 50 μM)
7 | Cc1nc(-c2ccc(C)c(NC(=O)c3cnc4ccc(N(C)C)cn34)c2)no1 [Compound I-205] | ≤ 0.05 µM | 0.05 to 0.5 µM | ≤ 0.05 µM | 1.66 | 23.5 10^−6 cm/s | **** (a solubility less than or equal to 2 μM)
8 | Cc1ccc(-c2noc(CC(O)C(F)F)n2)cc1NC(=O)c1cnc2ccccn12 (stereo not drawn) [Compound I-114] | 0.05 to 0.5 µM | 0.5 to 5 µM | ≤ 0.05 µM | 8.07 | 3.03 10^−6 cm/s | **** (a solubility less than or equal to 2 μM)
9 | Cc1ccc(-c2noc(C3CCC(F)C3)n2)cc1NC(=O)c1cnc2ccccn12 (racemic) [Compound I-319] | ≤ 0.05 µM | 0.05 to 0.5 µM | ≤ 0.05 µM | 1.02 | 13.1 10^−6 cm/s | *** (a solubility greater than 2 μM and less than or equal to 10 μM)
10 | Cc1ccc(-c2noc(C3CCS(=O)(=O)N3)n2)cc1NC(=O)c1cnc2ccccn12 (racemic) [Compound I-330] | ≤ 0.05 µM | 0.05 to 0.5 µM | ≤ 0.05 µM | 24.9 | 1.28 10^−6 cm/s | ** (a solubility greater than 10 μM and less than or equal to 50 μM)
11 | COC(=O)N1CC(c2nc(-c3ccc(C)c(NC(=O)c4cnn5cc(C#N)ccc45)c3)no2)C1 [Compound I-204] | 0.05 to 0.5 µM | 5 to 30 µM | ≤ 0.05 µM | 6.11 | 3.27 10^−6 cm/s | *** (a solubility greater than 2 μM and less than or equal to 10 μM)
12 | Cc1ccc(-c2noc(C(C)NS(C)(=O)=O)n2)cc1NC(=O)c1cnc2ccccn12 (single isomer, unassigned) [Compound I-237] | 0.5 to 5 µM | 5 to 30 µM | 0.05 to 0.5 µM | 11.5 | 1.66 10^−6 cm/s | ** (a solubility greater than 10 μM and less than or equal to 50 μM)
13 | COC(=O)N1CC(c2nc(-c3ccc(C)c(NC(=O)c4cnc5cc(OC[C@H](C)O)ccn45)c3)no2)C1 [Compound I-262] | ≤ 0.05 µM | 0.05 to 0.5 µM | ≤ 0.05 µM | 46.5 | 0.54 10^−6 cm/s | ** (a solubility greater than 10 μM and less than or equal to 50 μM)
14 | Cc1ccc(-c2noc(C3COC3)n2)cc1NC(=O)c1cnc2ccccn12 [Compound I-138] | ≤ 0.05 µM | 0.5 to 5 µM | ≤ 0.05 µM | 5.11 | 10.4 10^−6 cm/s | **** (a solubility less than or equal to 2 μM)
15 | Cc1nc(-c2ccc(C)c(NC(=O)c3cnc4cc(C(F)F)ccn34)c2)no1 [Compound I-134] | 0.5 to 5 µM | 0.5 to 5 µM | ≤ 0.05 µM | 2.12 | 7.85 10^−6 cm/s | **** (a solubility less than or equal to 2 μM)
16 | O=C(Nc1cc(-c2noc([C@H]3C[C@@H]3F)n2)ccc1Br)c1cnc2ccccn12 [Compound I-340] | ≤ 0.05 µM | 0.05 to 0.5 µM | ≤ 0.05 µM | 0.28 | 80.4 10^−6 cm/s | **** (a solubility less than or equal to 2 μM)
17 | Cc1ccc(-c2noc(CCO)n2)cc1NC(=O)c1cnc2ccccn12 [Compound I-306] | 0.05 to 0.5 µM | 5 to 30 µM | ≤ 0.05 µM | 23.2 | 1.46 10^−6 cm/s | * (a solubility greater than 50 μM)
18 | Cc1ccc(-c2noc(CC(=O)O)n2)cc1NC(=O)c1cnc2ccccn12 [Compound I-335] | 0.5 to 5 µM | 0.5 to 5 µM | 0.05 to 0.5 µM | 0.37 | 1.99 10^−6 cm/s | * (a solubility greater than 50 μM)
19 | Cc1ccc(-c2noc(CC3CC3(F)F)n2)cc1NC(=O)c1cnc2ccccn12 (stereo not drawn) [Compound I-125] | ≤ 0.05 µM | 0.05 to 0.5 µM | ≤ 0.05 µM | 1.6 | 9.07 10^−6 cm/s | **** (a solubility less than or equal to 2 μM)
